Assay results taken from ChEMBL document CHEMBL5528039, “Discovery of a Macrocyclic Influenza Cap-Dependent Endonuclease Inhibitor” (J Med Chem, 2024).
Active and inactive are the calls of the source. No cut-off for these calls is given here.

Tests used:
[1] = Prodrug conversion in BALB/c mouse assessed as (7aS,16R)-2,3-difluoro-10-hydroxy-8-methyl-16-phenyl-6,7,7a,8-tetrahydro-16H-benzo[b]pyrido[1',2':1,6][1,2,4]triazino[2,3-e][1,5]oxazocine-9,11-dione Cmax at 10 mg/kg, po measured after 24 hrs by LC-MS/MS analysis; type: ADME, organism-based; settings: in vivo
[2] = Prodrug conversion in BALB/c mouse assessed as (7aS,16R)-2,3-difluoro-10-hydroxy-8-methyl-16-phenyl-6,7,7a,8-tetrahydro-16H-benzo[b]pyrido[1',2':1,6][1,2,4]triazino[2,3-e][1,5]oxazocine-9,11-dione half-life at 10 mg/kg, po measured after 24 hrs by LC-MS/MS analysis; type: ADME, organism-based; settings: in vivo
[3] = Prodrug conversion in BALB/c mouse assessed as (7aS,16R)-2,3-difluoro-10-hydroxy-8-methyl-16-phenyl-6,7,7a,8-tetrahydro-16H-benzo[b]pyrido[1',2':1,6][1,2,4]triazino[2,3-e][1,5]oxazocine-9,11-dione AUC (0 to last) at 10 mg/kg, po measured after 24 hrs by LC-MS/MS analysis; type: ADME, organism-based; settings: in vivo
[4] = Prodrug conversion in Beagle dog assessed as (7aS,16R)-2,3-difluoro-10-hydroxy-8-methyl-16-phenyl-6,7,7a,8-tetrahydro-16H-benzo[b]pyrido[1',2':1,6][1,2,4]triazino[2,3-e][1,5]oxazocine-9,11-dione Cmax at 1 mg/kg, po measured after 24 hrs by LC-MS/MS analysis; type: ADME, organism-based, Canis lupus familiaris; settings: in vivo
[5] = Prodrug conversion in Beagle dog assessed as (7aS,16R)-2,3-difluoro-10-hydroxy-8-methyl-16-phenyl-6,7,7a,8-tetrahydro-16H-benzo[b]pyrido[1',2':1,6][1,2,4]triazino[2,3-e][1,5]oxazocine-9,11-dione half-life at 1 mg/kg, po measured after 24 hrs by LC-MS/MS analysis; type: ADME, organism-based, Canis lupus familiaris; settings: in vivo
[6] = Prodrug conversion in Beagle dog assessed as (7aS,16R)-2,3-difluoro-10-hydroxy-8-methyl-16-phenyl-6,7,7a,8-tetrahydro-16H-benzo[b]pyrido[1',2':1,6][1,2,4]triazino[2,3-e][1,5]oxazocine-9,11-dione AUC (0 to last) at 1 mg/kg, po measured after 24 hrs by LC-MS/MS analysis; type: ADME, organism-based, Canis lupus familiaris; settings: in vivo
[7] = Prodrug conversion in cynomolgus monkey assessed as (7aS,16R)-2,3-difluoro-10-hydroxy-8-methyl-16-phenyl-6,7,7a,8-tetrahydro-16H-benzo[b]pyrido[1',2':1,6][1,2,4]triazino[2,3-e][1,5]oxazocine-9,11-dione Cmax at 1 mg/kg, po measured after 24 hrs by LC-MS/MS analysis; type: ADME, organism-based, Macaca fascicularis; settings: in vivo
[8] = Prodrug conversion in cynomolgus monkey assessed as (7aS,16R)-2,3-difluoro-10-hydroxy-8-methyl-16-phenyl-6,7,7a,8-tetrahydro-16H-benzo[b]pyrido[1',2':1,6][1,2,4]triazino[2,3-e][1,5]oxazocine-9,11-dione half-life at 1 mg/kg, po measured after 24 hrs by LC-MS/MS analysis; type: ADME, organism-based, Macaca fascicularis; settings: in vivo
[9] = Prodrug conversion in cynomolgus monkey assessed as (7aS,16R)-2,3-difluoro-10-hydroxy-8-methyl-16-phenyl-6,7,7a,8-tetrahydro-16H-benzo[b]pyrido[1',2':1,6][1,2,4]triazino[2,3-e][1,5]oxazocine-9,11-dione AUC (0 to last) at 1 mg/kg, po measured after 24 hrs by LC-MS/MS analysis; type: ADME, organism-based, Macaca fascicularis; settings: in vivo
Influenza A virus [10] = assay: Antiviral activity against Influenza A virus A/PR/8/34 infected in BALB/c mouse assessed as reduction in body weight loss at 5 to 30 mg/kg, po pre-infected with virus for 48 hrs followed by twice daily compound administration starting from day 2 and measured on day 5; type: functional, organism-based; settings: dose 5-30 mg/kg, time 72.0 hrs
Influenza A virus [11] = assay: Antiviral activity against Influenza A virus A/PR/8/34 infected in BALB/c mouse assessed as reduction in viral load in lungs at 5 to 30 mg/kg, po pre-infected with virus for 48 hrs followed by twice daily compound administration starting from day 2 and measured 1 hrs after last dose on day 5 by crystal violet staining based analysis; type: functional, organism-based; settings: dose 5-30 mg/kg, time 73.0 hrs
Influenza B virus [12] = assay: Antiviral activity against Influenza B virus B/Lee/40 infected in BALB/c mouse assessed as reduction in body weight loss at 0.5 to 5 mg/kg, po pre-infected with virus for 24 hrs followed by twice daily compound administration from day 1 to 7 and measured on day 14; type: functional, organism-based; settings: dose 0.5-5 mg/kg, time 14.0 day
Influenza B virus [13] = assay: Antiviral activity against Influenza B virus B/Lee/40 infected in BALB/c mouse assessed as reduction in improvement in survival rate at 0.5 to 5 mg/kg, po pre-infected with virus for 24 hrs followed by twice daily compound administration from day 1 to 7 and measured on day 14; type: functional, organism-based; settings: dose 0.5-5 mg/kg, time 14.0 day
[14] = (§1) Prodrug conversion in BALB/c mouse infected with Influenza B virus B/Lee/40 assessed as (7aS,16R)-2,3-difluoro-10-hydroxy-8-methyl-16-phenyl-6,7,7a,8-tetrahydro-16H-benzo[b]pyrido[1',2':1,6][1,2,4]triazino[2,3-e][1,5]oxazocine-9,11-dione formation at 0.5 to 5 mg/kg, po pre-infected with virus for 24 hrs followed by twice daily compound administration from day 1 to 7 and measured on day 14 by LC-MS/MS analysis; type: ADME, organism-based; settings: in vivo, 336 h, dose 0.5-5 mg/kg, time 14 day
[15] = as §1, with “formation by measuring Ctau” for “formation”, “at” for “at 0.5 to”; type: ADME, organism-based; settings: in vivo, 336 h, time 14 day

Molecule `COC(=O)OCOc1c2n(ccc1=O)N1[C@H](c3ccccc3)c3cc(F)c(F)cc3OCC[C@H]1N(C)C2=O` has a Cmax [1] of 309 nM, a t1/2 [2] of 1.3 h and an AUClast [3] of 0.93 µM·h. For the same molecule, the Cmax [4] was 171 nM, the t1/2 [5] was 4.4 h and the AUClast [6] was 0.724 µM·h. It also gave a Cmax [7] of 163 nM, a t1/2 [8] of 3.6 h and an AUClast [9] of 0.785 µM·h. The Activity (Influenza A virus [10]) was “Active”, the Activity (Influenza A virus [11]) was “Active” and the Activity (Influenza B virus [12]) was “Active”. The Activity (Influenza B virus [13]) was “Active”, the Drug metabolism [14] was “Metabolite_Detected” and the Ctau [15] was greater than 16 nM.
